According to patent US20260327240A1, “1,4-CINEOLE DERIVATIVE AND INTERMEDIATE THEREOF, HERBICIDE CONTAINING SAID DERIVATIVE AS ACTIVE INGREDIENT, METHOD FOR USING HERBICIDE, AND METHOD FOR PREPARING AGROCHEMICAL COMPOSITION” (HOKKO CHEMICAL INDUSTRY CO., LTD., priority 2023, published 2026):

Tests used:
Type in all cases: in vivo
[1] = system: Echinochloa crus-galli var. formosensis; test: Test Example 1: herbicidal effect test by soil application in paddy rice; conditions: 120 g per 10 ares, 14 days after application
Method: (§1) Herbicidal Effect Test by Soil Application in Paddy Rice
(§2) Wagner pots with an area of […] were filled with paddy soil, followed by addition of water and incorporation of chemical fertilizer (N:P:K=16:16:16), after which puddling was performed. After that, seeds of Echinochloa crus-galli var. formosensis, broad-leaved weeds (Lindernia pyxidaria and Monochoria vaginalis), and Scirpus juncoides were sown at a depth of 0 cm to 1 cm, 30 seeds each. Immediately after sowing, the pots were flooded and a water depth of approximately 3 cm was maintained. Subsequent management was conducted in a glass greenhouse. Immediately thereafter, an emulsifiable concentrate prepared according to Formulation Example 5 using the compound shown below was diluted with water, and a specified amount of the diluted solution was applied by dropper. The amount of the active ingredient to be applied was equivalent to 120 g per 10 ares.
(§3) The present test was conducted in duplicate for each chemical concentration group, and the weed inhibition rate (%) was determined 14 days after chemical application using the following formula (Math. 1).

[2] = system: Monochoria vaginalis; test: as above; conditions: 120 g per 10 ares, 14 days after application
Method: as §1, §2, §3

[3] = system: Scirpus juncoides; test: as above; conditions: 120 g per 10 ares, 14 days after application
Method: as §1, §2, §3

[4] = system: Echinochloa crus-galli var. formosensis; test: Test Example 2: herbicidal effect test by application during growth period of paddy rice; conditions: 7 days after sowing, 120 g per 10 ares, 14 days after application
Method: (§4) Herbicidal Effect Test by Application During Growth Period of Paddy Rice
as §2, with “(Lindemia pyxidaria,” for “(Lindernia pyxidaria”, “Seven days after sowing,” for “Immediately thereafter,”, “ares. The test was conducted in duplicate for each chemical concentration group, and the herbicidal effect was evaluated 14 days after chemical application using the same criteria as in Test Example 1.” for “ares.”

[5] = system: Monochoria vaginalis; test: as above; conditions: 7 days after sowing, 120 g per 10 ares, 14 days after application
Method: as §4
as §2, with “(Lindemia pyxidaria,” for “(Lindernia pyxidaria”, “Seven days after sowing,” for “Immediately thereafter,”, “ares. The test was conducted in duplicate for each chemical concentration group, and the herbicidal effect was evaluated 14 days after chemical application using the same criteria as in Test Example 1.” for “ares.”

[6] = system: Scirpus juncoides; test: as above; conditions: 7 days after sowing, 120 g per 10 ares, 14 days after application
Method: as §4
as §2, with “(Lindemia pyxidaria,” for “(Lindernia pyxidaria”, “Seven days after sowing,” for “Immediately thereafter,”, “ares. The test was conducted in duplicate for each chemical concentration group, and the herbicidal effect was evaluated 14 days after chemical application using the same criteria as in Test Example 1.” for “ares.”

[7] = system: Digitaria ciliaris; test: Test Example 3: herbicidal effect test by soil application in upland field; conditions: 1 day after sowing, 120 g per 10 ares, 14 days after application
Method: (§5) Herbicidal Effect Test by Soil Application in Upland Field
(§6) Pots with an area of 36 cm^2 were filled with upland soil (alluvial loam), twenty seeds each of weeds of Digitaria ciliaris, Echinochloa crus-galli, Chenopodium album, and Amaranthus viridis were uniformly mixed with the top 1 cm layer of soil and the surface was lightly pressed down. One day after sowing, an emulsifiable concentrate prepared according to Formulation Example 5 using the compound shown below was diluted with water, and the diluted solution was sprayed onto the soil surface at a rate of 100 liters per 10 ares. The amount of the active ingredient to be applied was equivalent to 120 g per 10 ares. Fourteen days after chemical application, the herbicidal effect was evaluated according to the same criteria as in Test Example 1.

[8] = system: Echinochloa crus-galli; test: as above; conditions: 1 day after sowing, 120 g per 10 ares, 14 days after application
Method: as §5, §6

[9] = system: Digitaria ciliaris; test: Test Example 4: herbicidal effect test by stem and leaf treatment in upland field; conditions: 7 days after sowing, 120 g per 10 ares, 14 days after application
Method: (§7) Herbicidal Effect Test by Stem and Leaf Treatment in Upland Field
as §6, with “Seven days” for “One day”

[10] = system: Echinochloa crus-galli; test: as above; conditions: 7 days after sowing, 120 g per 10 ares, 14 days after application
Method: as §7
as §6, with “Seven days” for “One day”

[11] = system: Echinochloa crus-galli var. formosensis; test: Test Example 5: herbicidal effect test by soil application in paddy rice; conditions: 7.5 g per 10 ares, 14 days after application
Method: as §1
as §2, with “(Lindemia pyxidaria,” for “(Lindernia pyxidaria”, “7.5” for “120”
The present test was conducted in duplicate for each chemical concentration group, and the herbicidal effect was evaluated 14 days after chemical application using the same criteria as in Test Example 1.

[12] = system: Echinochloa crus-galli var. formosensis; test: Test Example 6: herbicidal effect test by application during growth period of paddy rice; conditions: 7 days after sowing, 7.5 g per 10 ares, 14 days after application
Method: as §4
as §2, with “(Lindemia pyxidaria,” for “(Lindernia pyxidaria”, “Seven days after sowing,” for “Immediately thereafter,”, “7.5” for “120”, “ares. The test was conducted in duplicate for each chemical concentration group, and the herbicidal effect was evaluated 14 days after chemical application using the same criteria as in Test Example 1.” for “ares.”

[13] = system: Digitaria ciliaris; test: Test Example 7: herbicidal effect test by soil application in upland field; conditions: 1 day after sowing, 7.5 g per 10 ares, 14 days after application
Method: as §5
as §6, with “7.5” for “120”

[14] = system: Echinochloa crus-galli; test: as above; conditions: 1 day after sowing, 7.5 g per 10 ares, 14 days after application
Method: as §5
as §6, with “7.5” for “120”

[15] = system: Digitaria ciliaris; test: Test Example 8: herbicidal effect test by stem and leaf treatment in upland field; conditions: 7 days after sowing, 7.5 g per 10 ares, 14 days after application; for inhibition at 75 g/ha: Digitaria ciliaris, read-out: weed inhibition rate
Method: as §7
as §6, with “Seven days” for “One day”, “7.5” for “120”

[16] = system: Echinochloa crus-galli; test: as above; conditions: 7 days after sowing, 7.5 g per 10 ares, 14 days after application
Method: as §7
as §6, with “Seven days” for “One day”, “7.5” for “120”

[17] = Echinochloa crus-galli, read-out: weed inhibition rate
[18] = Digitaria ciliaris, read-out: weed inhibition rate

CC(C)[C@]12C[C@@H](OCc3ccccc3F)[C@](C)(C[C@@H]1Cl)O2 [1-12]
≥ 80%: weed inhibition rate [1] | weed inhibition rate [2] | weed inhibition rate [3] | weed inhibition rate [4] | weed inhibition rate [5] | weed inhibition rate [6] | weed inhibition rate [7] | weed inhibition rate [8] | weed inhibition rate [9] | weed inhibition rate [10] | weed inhibition rate [11] | weed inhibition rate [12] | weed inhibition rate [13] | weed inhibition rate [14] | weed inhibition rate [15] | weed inhibition rate [16]

CC(C)[C@]12C[C@@H](OCc3ccccc3C(F)(F)F)[C@](C)(C[C@@H]1Br)O2 [1-700, (1S,2R,4R,5S)-5-bromo-1-methyl-4-isopropyl-2-[[2-(trifluoromethyl)phenyl]methoxy]-7-oxabicyclo[2.2.1]heptane]
≥ 80%: inhibition at 75 g/ha [15]

CC(C)[C@]12C[C@@H](OCc3ccccn3)[C@](C)(C[C@@H]1I)O2 [1-785, 2-[[(1S,2R,4R,5S)-5-iodo-4-isopropyl-1-methyl-7-oxabicyclo[2.2.1]heptan-2-yl]oxymethyl]pyridine]
≥ 80%: inhibition at 1200 g/ha [4, 17] | inhibition at 1200 g/ha ([6]; Schoenoplectiella juncoides, read-out: weed inhibition rate) | inhibition at 1200 g/ha [9, 18] | inhibition at 1200 g/ha [10, 17] | inhibition at 75 g/ha ([11]; Echinochloa crus-galli, 336 h, read-out: weed inhibition rate) | inhibition at 75 g/ha [12, 17] | inhibition at 75 g/ha [13, 18] | inhibition at 75 g/ha [14, 17] | inhibition at 75 g/ha [15] | inhibition at 75 g/ha [16, 17]

CC(=O)O[C@@H]1C[C@]2(C)O[C@@]1(C(C)C)C[C@H]2OCc1ccccc1F [1-932, [(1R,2R,4S,5R)-5-[(2-fluorophenyl)methoxy]-4-methyl-1-isopropyl-7-oxabicyclo[2.2.1]heptan-2-yl]acetate]
≥ 80%: weed inhibition rate [1] | weed inhibition rate [4] | weed inhibition rate [11] | weed inhibition rate [12]

CC(C)[C@]12C[C@@H](OCc3ccccc3F)[C@](C)(C=C1OS(=O)(=O)C(F)(F)F)O2 [3-680]
≥ 80%: weed inhibition rate [1] | weed inhibition rate [3] | weed inhibition rate [4] | weed inhibition rate [6] | weed inhibition rate [7] | weed inhibition rate [8] | weed inhibition rate [9] | weed inhibition rate [10] | weed inhibition rate [11] | weed inhibition rate [12] | weed inhibition rate [13] | weed inhibition rate [14] | weed inhibition rate [15] | weed inhibition rate [16]
